Assay results reported in US20080096971A1, “Treatment of Inflammatory Disorders and Pain” (priority 2004, published 2008).
“Also recorded” adds a separate entry of the source.

Legend:
[1] = tested on: Guinea-pig trachea ring preparations (beta2 agonism); assay: Beta2 Agonism Functional Assay (carbachol-contracted trachea rings); type: cell-based; conditions: for beta2 agonist activity (in words): guinea-pig trachea, formoterol positive control
Method: Beta2 Agonism Functional Assay
Guinea-pig trachea ring preparations were suspended in Kreb's solution containing indomethacin. After 15 minutes stabilisation, the preparations were repeated contracted using carbachol and simultaneously treated with increasing cumulative doses test compounds (0.1 nM to 0.1 μM). Beta2 agonism for each test compound was determined by its dose-dependant inhibition of carbachol-stimulated tracheal muscle twitch.

[2] = tested on: Serum TNFα and IL-10 levels; assay: LPS Mouse Assay; type: in vivo, Balb C ByJ mice; conditions: LPS 1 mg/kg i.p., serum 2 hours after challenge, 0.3 and 1 mg/kg p.o. for (S)-clenbuterol
Method: 7 week old Balb C ByJ mice (24-28 g) were administered, either by i.p. (5 ml/kg) or oral (10 ml/kg) administration, with vehicle or test article. 30 minutes later these animals were challenged with an intraperitoneal injection of 1 mg/kg LPS. 2 hours after LPS challenge blood samples were collected under light isoflurane anaesthesia into normal tubes by retro-orbital puncture. Samples were allowed to clot at room temperature and then spun at 6000 g for 3 min at 4° C. Serum was stored at −20° C. until use. Serum TNFα and IL-10 levels were analysed in duplicate by ELISA technique.

[3] = tested on: male Wistar rats (carrageenan-injected right hind paw); assay: Carrageenan Paw Assay; type: in vivo; conditions: doses of 0.3, 1 and 3 mg/kg oral; 1-5 hours after carrageenan
Method: Fasted (18 hour) male Wistar rats (105-130 g) were weighed and a basal mercury plethysmometer reading was taken of the right hind paw by submerging the paw in the mercury up to the tibiotarsal joint. Subsequently, vehicles, reference items and test articles were administered by oral gavage (10 ml/kg). Half an hour after treatment 0.1 ml of 2% carrageenan in 0.9% saline was injected into the subplanatar area of the right hind paw. The right paw was measured again with the plethysmometer at 1, 2, 3, 4 and 5 hours after carrageenan administration.

[4] = tested on: Male Wistar rats (Freund's adjuvant); assay: Rat Adjuvant Assay; type: in vivo; conditions: oral once a day from day 11; (S)-clenbuterol at 0.3, 1 and 3 mg/kg/day
Method: Male Wistar rats (180 to 200 g) were inoculated by subplantar injection of Freund's adjuvant (suspension of Mycobacterium butyricum in mineral oil) into the right paw at day 0. Sham inoculations were injected in the same way with 0.9% saline in matched Male Wistar rats. On day 2 animals were weighed. On days 3, 4, 7, 9 and 11 animals were weighed and both their right and left hind paws were measure by plethsymometry by submerging the paw up to the tibiotarsal joint. On day 11, rats with left hind paw volumes increased by 20% were selected for continuance in the study. On the same day continuance rats were administered test article orally (10 ml/kg in distilled water) and from then on once a day until the completion of the study. Left and right hind paw volumes were measured on days 11, 14, 15, 16, 18 and 21.

[5] = tested on: male DBA1 mice (collagen II induced arthritis); assay: Collagen II-Induced Arthritis Assay; type: in vivo; conditions: doses of 0.3, 1 and 3 mg/kg, from day 21
Method: Collagen II-Induced Arthritis Assay
6 to 8 week old male DBA1 mice were immunised with 0.1 ml intradermal (tail) injection of bovine type II collagen emulsified in Freund's complete adjuvant (day 0). At day 21 a booster collagen (intraperitoneal) inoculation was given, in PBS. Simultaneously, administration of test compound was given by the predetermined route of administration and delivery frequency. In addition, day 21 commenced observation of clinical signs, body weights and arthritis reaction scores. Arthritis score was assessed by the summation of all four paws scored for signs of arthritis development.

SMILES | beta2 agonist activity (in words) [1] | beta2 agonist activity (in words) ([1]; listed as (R)-clenbuterol) | immunomodulatory activity (serum TNFα and IL-10 after LPS) [2] | inhibition of carbachol-stimulated tracheal muscle twitch ([1]; from −10 to −7 log M, cumulative doses) | immunomodulatory activity (serum TNFα and IL-10 after LPS) ([2]; listed as (S)-clenbuterol) | anti-inflammatory activity (paw volume) [3] | anti-inflammatory effect (hind paw volume) [4] | anti-inflammatory effect (arthritis score) [5]
CC(C)(C)NC[C@H](O)c1cc(Cl)c(N)c(Cl)c1 [(R)-Clenbuterol] | little such beta2 agonist activity | distinct beta2 agonism | significant activity | – | – | – | – | –
CC(C)(C)NC[C@@H](O)c1cc(Cl)c(N)c(Cl)c1 [(S)-Clenbuterol, (S)-(+)-clenbuterol] | a little lower than that caused by formoterol | – | significant activity | up to 75% | profound immunomodulatory profile; also recorded: less than (R)-clenbuterol | strong and dose-dependent anti-inflammatory activity | clear but non-dose-related anti-inflammatory effect | clear but inverse dose-related anti-inflammatory effect
